Assay results: ChEMBL document CHEMBL1152943, “Synthesis and in vitro anti-hepatitis B virus activity of 6H-[1]benzothiopyrano[4,3-b]quinolin-9-ols” (Bioorg Med Chem, 2009); call rule not given here

Legend:
[1] = tested on: Hepatitis B virus; test: Antiviral activity against HBV infected in human HepG2(2.2.15) cells assessed as inhibition of HBV DNA replication; type: functional, organism-based
[2] = tested on: Hepatitis B virus; test: Antiviral activity against HBV infected in human HepG2(2.2.15) cells assessed as inhibition of HBV surface antigen at < TC50; type: functional, organism-based
[3] = Cytotoxicity against human HepG2(2.2.15) cells after 24 hrs by neutral red dye staining; type: functional; conditions: HepG2 2.2.15, 24 h
[4] = Selectivity index, ratio of TC50 for human HepG2(2.2.15) cells to IC50 for inhibition of HBV surface antigen
[5] = tested on: Hepatitis B virus; test: Antiviral activity against HBV infected in human HepG2(2.2.15) cells assessed as inhibition of HBV surface antigen; type: functional, organism-based
[6] = Selectivity index, ratio of TC50 for human HepG2(2.2.15) cells to IC50 for inhibition of HBV DNA replication
[7] = Hepatitis B virus, HepG2 2.2.15, read-out: IC50

Row | IC50 ([1]; hepg2 2.2.15) | IC50 [5] [µM] | IC50 [1, 7] [µM] | SMILES | IC50 [2] | CC50 [3] [µM] | Selectivity Index [4] | Selectivity Index [6]
1 | Not Active |  |  | COc1cc2nc3c(cc2c(CN2CCN(C)CC2)c1O)CSc1ccccc1-3 | Not Active | 25.2 |  | 
2 | Not Active |  |  | COc1cc2nc3c(cc2c(CN2CCOCC2)c1O)CSc1ccccc1-3 | Not Active | 42.1 |  | 
3 | Not Active |  |  | COc1cc2nc3c(cc2c(CN2CCN(C)CC2)c1O)CSc1cc(F)ccc1-3 | Not Active | 13.5 |  | 
4 |  |  | 107 | COc1cc2nc3c(cc2c(CN2CCN(C)CC2)c1O)CSc1ccc(C)cc1-3 | Not Active | 527 |  | 4.9
5 | Not Active | 9.3 |  | COc1cc2nc3c(cc2c(CN(C)C)c1O)CSc1ccccc1-3 |  | 36.5 | 3.9 | 
6 |  |  | 56.3 | COc1cc2nc3c(cc2c(CN2CCCC2)c1O)CSc1ccc(C)cc1-3 | Not Active | 146 |  | 2.6

Continued, molecule first:

Row | SMILES | IC50 ([1]; hepg2 2.2.15) | IC50 [5] [µM] | IC50 [1, 7] [µM] | IC50 [2] | CC50 [3] [µM] | Selectivity Index [4] | Selectivity Index [6]
7 | COc1cc2nc3c(cc2c(CN2CCOCC2)c1O)CSc1cc(C)ccc1-3 | Not Active |  |  | Not Active | 262 |  | 
8 | COc1cc2nc3c(cc2c(CN(C)C)c1O)CSc1c(C)cc(C)cc1-3 | Not Active | 13.8 |  |  | 32.4 | 2.4 | 
9 | COc1cc2nc3c(cc2c(CN2CCCC2)c1O)CSc1cc(F)ccc1-3 |  |  | 173 | Not Active | 566 |  | 3.3
10 | COc1cc2nc3c(cc2c(CN2CCOCC2)c1O)CSc1ccc(C)cc1-3 |  |  | 14.7 | Not Active | 181 |  | 12.4
11 | COc1cc2nc3c(cc2c(CN2CCCC2)c1O)CSc1ccc(F)cc1-3 |  |  | 47.7 | Not Active | 435 |  | 9.1
12 | COc1cc2nc3c(cc2c(CN(C)C)c1O)CSc1ccc(C)cc1-3 | Not Active | 22.1 |  |  | 67.3 | 3 | 
13 | CCN(CC)Cc1c(O)c(OC)cc2nc3c(cc12)CSc1ccccc1-3 | Not Active |  |  | Not Active | 39 |  | 
14 | CCN(CC)Cc1c(O)c(OC)cc2nc3c(cc12)CSc1ccc(C)cc1-3 |  |  | 2 | Not Active | 12 |  | 6
15 | COc1cc2nc3c(cc2c(CN2CCOCC2)c1O)CSc1cc(F)ccc1-3 | Not Active |  |  | Not Active | 28.8 |  | 
16 | COc1cc2nc3c(cc2c(CN2CCOCC2)c1O)CSc1c(C)cc(C)cc1-3 | Not Active |  |  | Not Active | 50.6 |  | 
17 | COc1cc2nc3c(cc2c(CN2CCCCC2)c1O)CSc1c(C)cc(C)cc1-3 |  |  | 4.2 | Not Active | 21.9 |  | 5.3
18 | CCN(CC)Cc1c(O)c(OC)cc2nc3c(cc12)CSc1cc(F)ccc1-3 |  |  | 2.4 | Not Active | 20.7 |  | 8.7
19 | Nc1ccn([C@@H]2CS[C@H](CO)O2)c(=O)n1 [LAMIVUDINE] |  |  | 240 | Not Active | 2180 |  | 9.1
